The text below walks through data of patent publication US20230346769A1, “USE OF SIMPLE ACYCLIC POLYAMINES FOR THE TREATMENT OF DISEASES CAUSED BY PARASITES OF THE GENUS LEISHMANIA” (Universidad De Granada, priority 2020, published 2023).

Assay [1] has as its system L. infantum promastigote forms. Kind of assay: In vitro activity against extracellular (promastigote) forms. The class given is cell-based, Leishmania infantum. The source says:
(§1) Methodology: Cultures of three Leishmania species, representative of the species causing each of the clinical forms of the disease, were used for these studies. Specifically, strains MCAN/ES/2001/UCM-1 O of L.infantum, isolated and characterised in Madrid from an infected dog; MHOM/BR/1975/M2904 of L.braziliensis, isolated in Brazil in a human case, and LCR-L 133 LRC of L.donovani. isolated in Jerusalem, Israel from a case of kala-azar […] (WHO Technical Reports Series 949. Geneva: WHO. March. The cultures of parasites come from an own collection which was prepared from a biobank project (Biobank and Characterisation Unit of Strains and Species of Trypanosomatids, Responsible for Human, Animal and Plant Pathologies, Cgl-2008-03687-E/Bos.), and are available on request.
(§2) The promastigote forms of the three species studied were cultured in vitro in sterility in single-phase MTL culture medium (Medium Trypanosomes Liquid) made from Hank’s Balanced Salts (Sigma-Aldrich, H6136) enriched with 10% (v/v) of Fetal Bovine Serum (SBF-1) inactivated at 56° C./ 30 minutes. The parasite inoculum to initiate the culture was 5 × 10^4 cells/ml in 5 ml medium in 25 cm^2 Falcon® plastic flasks and kept in an oven at 28° C. The cultures were performed routinely, achieving exponential growth of the flagellates until obtaining the cell mass necessary for the subsequent studies. Both promastigote forms and amastigote forms were used to conduct the assays.
(§3) The promastigote forms of the three Leishmania strains, cultured in the manner described above, were harvested in their exponential growth phase by centrifugation at 400 g for 10 min. The number of parasites was counted in a Neubauer Haemocytometer Counting Chamber and were inoculated in a 24-well plate at a concentration of 5 ×10^4 parasites/well.
(§4) The compounds to be assayed were dissolved in DMSO at a concentration of 0.01% (v/v), concentration at which this solvent is not toxic nor has any effect on the growth of parasites. The compounds were added to the culture medium at final concentrations of 100, 50, 25 and 12.5 µM. […] M. et al. Med. Chem. 2011. 54. 970-979].

Assay [2] concerns L. infantum amastigote forms. Briefly: In vitro activity against intracellular (amastigote) forms in macrophages. The class given is cell-based, Leishmania infantum.
Description: as §1
(§5) For the study of the in vitro effect on intracellular forms of Leishmania, the experimental model designed by the group of the present inventors was used [Sánchez-Moreno. M. et al. Med. Chem. 2012, 55, 9900-9913; Sánchez-Moreno. M. et al. J. Antimicrob. Chemother. 2012, 67, 387-397]. The macrophages were detached from the culture flask where they were attached by dry blows. To do this, it was incubated in cold for 5 minutes and after that the flask was hit with the palm of the hand until the cells were detached from the flask. Then, they were passed to a 25 ml capacity steriling conical bottom flask (Deltalab) to centrifuge them at 120 g for 5 minutes, removing the supernatant and were counted in Neubauer’s chamber. Cells were suspended in RPMI medium at a concentration of 1×10^4 cells/well, then cultured in 24-well plates into which a 12 mm round slide had previously been placed into each well. For adherence, the cells were left 24 h at 37° C. in 5% CO2. Subsequently, the cells were infected in vitro by placing Leishmania cells at the rate of 10 parasites/macrophage according to [Sánchez-Moreno. M et al. Med. Chem. 2011, 54, 970-979]. […] The products were allowed to act for 72 hours of incubation.
(§6) After that time, the crystals were removed and fixed with methanol on a slide and allowed to dry, after which DPX microscopy mounting medium (Panreac®) was added to it. Once the preparations had been mounted, they were dyed with Giemsa by diluting Azur-Eosin-Methylene Blue solution according to Giemsa DC (Code 251338) with Sorensen buffer (1:10 dilution). The preparations were covered and allowed to colour for 20 minutes, after which they were washed with distilled water and then allowed to drain and dry vertically. Finally, the amastigote forms were counted with the aim of immersion in a total of 200 cells.

Assay [3] deals with L. braziliensis promastigote forms. Briefly: In vitro activity against extracellular (promastigote) forms. The class given is cell-based, Leishmania braziliensis.
Description: as §1, §2, §3, §4

Assay [4] relates to L. braziliensis amastigote forms. Kind of assay: In vitro activity against intracellular (amastigote) forms in macrophages. The class given is cell-based, Leishmania braziliensis.
Description: as §1, §5, §6

Assay [5] relates to L. donovani promastigote forms. Kind of assay: In vitro activity against extracellular (promastigote) forms. The class given is cell-based, Leishmania donovani.
Description: as §1, §2, §3, §4

Assay [6] deals with L. donovani amastigote forms. Kind of assay: In vitro activity against intracellular (amastigote) forms in macrophages. The class given is cell-based, Leishmania donovani.
Description: as §1, §5, §6

Another assay concerns J774.2 macrophages. Briefly: Macrophage toxicity by flow cytometry. The settings on record: J774.2 macrophages, 72 h of culture. The class given is cell-based. As to the method:
Macrophage toxicity: this study used the experimental model designed by the group of inventors [I. Ramírez-Macías. et. al. J. Antimicrob. Chemother. 2011, 66(4): 813-819] wherein flow cytometry is used. Briefly, macrophages from line J774.2 (ECACC number 91051511, obtained from a BALB/c female […] tumour in 1968) were deposited in a steriling tube and centrifuged at 120 g for 5 minutes. The supernatant was discarded and the cells were resuspended in MEM + Glutamine medium with 20% SBF (fetal bovine serum). 1×10^4 cells per well were then deposited from a 24-well titration plate and incubated for 24-48 h at 37° C. in a humid atmosphere enriched with 5% CO2 to fix them. […] After 72 h of incubation, the samples were prepared for reading on a flow cytometer. Specifically, 100 µl of propidium iodide solution (100 µg/ml) was added to each well and incubated for 10 min at 28° C. in the dark. Subsequently, 100 µl/well of fluorescein diacetate (FDA) (Sigma Chemical Co) in solution (100 ng/mL) was added and incubation was repeated under the same conditions for 10 minutes. Cells were recovered by centrifugation at 400 g for 10 minutes and washing the precipitate with PBS. Finally, the results were analysed in a FACS Vantage flow cytometer (Becton Dickinson) taking into account that the cells with the plasma membrane intact emit green colour as the esterases act on the FDA, while the cells that have lost the integrity of the membrane and are not viable, emit in the range close to 580 nm by penetrating the propidium iodide by passive diffusion and specifically binding to the nucleic acids thereof. Thus, to calculate the percentage of viability, the number of dead cells compared to controls was taken into account.
(In general: In flow cytometry, cells or beads pass a laser one at a time.)

[7] abbreviates: IC50 of macrophages / IC50 of parasite form.

For “meglumine antimoniate [Glucantime, reference compound]”, the IC50 amounted to 18 ± 3.1 µM in assay [1] (72 h); 24.2 ± 2.6 µM in assay [2] (72 h); 18 ± 3.1 µM in assay [3] (72 h); 24.2 ± 2.6 µM in assay [4] (72 h); 18 ± 3.1 µM in assay [5] (72 h); 24.2 ± 2.6 µM in assay [6] (72 h). The same substance came in with an IC50 with J774.2 macrophages of 15.2 ± 1 µM. Further, the “Selectivity Index (SI) L. infantum Promastigote forms” value in assay [1] (setting [7]) is 0.8. The “Selectivity Index (SI) L. infantum Amastigote forms” value in assay [2] (setting [7]) is 0.6. In addition, in assay [3] (setting [7]), the “Selectivity Index (SI) L. brazilensis Promastigote forms” value amounted to 0.6. The “Selectivity Index (SI) L. brazilensis Amastigote forms” value in assay [4] (setting [7]) came to 0.6. Moreover, the “Selectivity Index (SI) L. donvovani Promastigote forms” value in assay [5] (setting [7]) is reported as 0.7. The “Selectivity Index (SI) L. donvovani Amastigote forms” value in assay [6] (setting [7]) was 0.6.

By IC50 is commonly meant the concentration that gives 50% inhibition.
